Values quoted from earlier work as cited in patent US6964965B2, “Substituted pyrazine derivatives” (Pharmacia & Upjohn, priority 2002, dated 2005).

How the values were obtained:
[1] = tested on: human epidermal keratinocyte cells; conditions: cultured human epidermal keratinocyte cells
CRF = conditions: for effect on the “anxiogenic” effects / actions of CRF in the conflict test: conflict test (operant conflict test)

SMILES	keratinocyte cell proliferation promoting effect [1]	effect on the “anxiogenic” effects / actions of CRF in the conflict test (CRF)	behavioral activity of the substance alone in the operant conflict test (CRF; alone, without CRF)
CCN(c1nc(C)cc(N2CC=C(c3cccc(F)c3)CC2)n1)c1ccc(C(C)C)cc1SC [2-[N-(2-methylthio-4-isopropylphenyl)-N-ethylamino]-4-[4-(3-fluorophenyl)-1,2,3,6-tetrahydropyridine-1-yl]-6-methylpyrimidine]	showed keratinocyte cell proliferation promoting effect	–	–
CNC(=O)c1cc2c(cn1)[nH]c1ccccc12 [FG 7142]	–	enhanced the actions of CRF	–
CCOC(=O)c1ncn2c1CN(C)C(=O)c1cc(F)ccc1-2 [Ro 15-1788]	–	reversed the effects of CRF in a dose-dependent manner	without behavioral activity alone
